IC50 data for 18 molecules are collected here from patent US9856252B2, “2-(hetero)aryl-benzimidazole and imidazopyridine derivatives as inhibitors of asparagime emethyl transferase” (Cancer Therapeutics CRC Pty Ltd, priority 2013, dated 2018).

The target in this test is Full-length PRMT5 enzyme (NCBI Reference sequence NP_006100.2) co-expressed with His6-MEP50 (Homo sapiens (Human), UniProt O14744). The test can be described thus: PRMT5 Biochemical Assay. Particulars: histone H4 derived peptide substrate 200 nM, 1 μM S-Adenosyl methionine, 4 hours at 37° C., Transcreener EPIGEN fluorescence polarisation. Here is the method: Compounds of the invention may be tested for in vitro activity in the following assay: A histone H4 derived peptide is used as substrate (amino acid sequence: […]N H2). Full-length PRMT5 enzyme (NCBI Reference sequence NP_006100.2) was co-expressed with His6-MEP50 in insect cells and purified via Nickel immobilized metal affinity and gel filtration chromatography (“the enzyme”).
Full-length PRMT5 enzyme (NCBI Reference sequence NP_006100.2) co-expressed with His6-MEP50, sequence (O14744 whole entry): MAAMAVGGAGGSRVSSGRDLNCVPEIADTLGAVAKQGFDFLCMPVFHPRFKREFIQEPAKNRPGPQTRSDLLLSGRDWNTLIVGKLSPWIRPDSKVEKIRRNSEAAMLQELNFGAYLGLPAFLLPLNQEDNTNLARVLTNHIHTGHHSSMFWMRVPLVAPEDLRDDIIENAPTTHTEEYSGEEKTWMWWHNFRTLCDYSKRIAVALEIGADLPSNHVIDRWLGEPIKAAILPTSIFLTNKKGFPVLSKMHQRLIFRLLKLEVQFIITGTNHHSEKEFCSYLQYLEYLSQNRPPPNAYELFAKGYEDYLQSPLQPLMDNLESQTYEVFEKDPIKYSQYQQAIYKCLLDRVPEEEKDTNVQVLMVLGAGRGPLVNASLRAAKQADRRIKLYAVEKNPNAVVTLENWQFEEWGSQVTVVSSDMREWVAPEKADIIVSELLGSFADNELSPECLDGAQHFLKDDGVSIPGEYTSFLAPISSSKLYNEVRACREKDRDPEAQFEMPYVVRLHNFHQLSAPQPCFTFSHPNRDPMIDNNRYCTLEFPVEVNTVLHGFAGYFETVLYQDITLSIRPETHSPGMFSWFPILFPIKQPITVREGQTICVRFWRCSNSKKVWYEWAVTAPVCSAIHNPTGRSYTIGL
Full-length PRMT5 enzyme (NCBI Reference sequence NP_006100.2) co-expressed with His6-MEP50, sequence (Q9BQA1 whole entry partner): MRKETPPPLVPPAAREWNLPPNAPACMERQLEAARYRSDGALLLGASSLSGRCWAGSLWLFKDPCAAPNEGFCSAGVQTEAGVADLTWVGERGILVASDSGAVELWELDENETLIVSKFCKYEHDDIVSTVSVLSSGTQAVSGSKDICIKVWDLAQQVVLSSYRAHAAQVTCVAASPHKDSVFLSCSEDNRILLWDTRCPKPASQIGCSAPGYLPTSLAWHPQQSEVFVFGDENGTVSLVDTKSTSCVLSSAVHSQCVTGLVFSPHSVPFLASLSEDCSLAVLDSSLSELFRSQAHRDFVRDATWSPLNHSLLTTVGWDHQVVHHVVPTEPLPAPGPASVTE
The 6 μL assay reactions are run in Greiner brand black 384-well low volume plates. All reactions contained assay buffer (phosphate buffered saline, 0.01% (v/v) Tween-20, 0.01% (w/v) albumin from chicken egg white, 1 mM dithiothreitol, 200 nM peptide substrate, 1 μM S-Adenosyl methionine, and 15 ng/reaction enzyme, with the enzyme being omitted from negative control reactions. Compounds were added in a volume of 100 nL from dilution series prepared in DMSO, positive and negative control reactions receiving the same volume DMSO without compound. The plates were sealed with adhesive seals and incubated for 4 hours at 37° C. Reaction progress was measured using the Transcreener™ EPIGEN methyltransferase assay (BellBrook Labs, Madison, Wis.) as recommended by the manufacturer. To each reaction 2 μL detection mix were added, containing coupling enzymes, fluorescence polarisation tracer, and AMP antibody. Plates were incubated for 90 minutes before being read on a PerkinElmer EnVision™ plate reader in fluorescence polarisation mode.
`c1ccc(OCc2ccc(-c3nc4ccc(C5CCCNC5)nc4[nH]3)cc2)cc1` (stereo not drawn) [Example 35, 2-(4-(phenoxymethyl)phenyl)-5-(piperidin-3-yl)-3H-imidazo[4,5-b]pyridine] showed a concentration for half-maximal inhibition (IC50) of 204 nM.

`[O-][S+]1CCN(c2ccc3nc(-c4ccc(OCc5ccccc5)cc4)[nH]c3n2)CC1` [Example 24, 4-(2-(4-(benzyloxy)phenyl)-3H-imidazo[4,5-b]pyridin-5-yl)thiomorpholine 1-oxide] registered an IC50 of 570 nM.

Consider `CS(=O)(=O)N1CCC(c2ccc3nc(-c4ccc(OCc5ccccc5)cc4)[nH]c3n2)CC1` [Example 87, 2-(4-(benzyloxy)phenyl)-5-(1-(methylsulfonyl)piperidin-4-yl)-3H-imidazo[4,5-b]pyridine], for which the midpoint of inhibition, the IC50, lay at 355 nM.

In the case of `c1ccc(COc2ccc(-c3nc4ccc(N5CCSCC5)nc4[nH]3)cc2)cc1` [Example 23, 4-(2-(4-(benzyloxy)phenyl)-3H-imidazo[4,5-b]pyridin-5-yl)thiomorpholine], the IC50 was determined as 497 nM.

`Fc1ccc(COc2ccc(-c3nc4ccc(N5CCNCC5)nc4[nH]3)cc2)cc1` [Example 59] came in with an IC50 of 535 nM.

For `c1ccc(COc2ccc(-c3nc4ccc(C5CC5)nc4[nH]3)cc2)cc1` [Example 105], 1500 nM corresponded to half-maximal inhibition (IC50).

In turn, `CCS(=O)(=O)N1CCN(c2ccc3nc(-c4ccc(OCc5ccccc5)c(-c5cccnc5)c4)[nH]c3n2)CC1` [Example 71] had an IC50 of 542 nM.

The molecule `CN1CCCC(c2ccc3nc(-c4ccc(COc5ccccc5)cc4)[nH]c3n2)C1` (stereo not drawn) [Example 99, 5-(1-methylpiperidin-3-yl)-2-(4-(phenoxymethyl)phenyl)-3H-imidazo[4,5-b]pyridine] registered an IC50 of 148 nM.

As for `FC(F)(F)c1ccc(COc2ccc(-c3nc4ccc(N5CCNCC5)nc4[nH]3)cc2)cc1` [Example 56], half-maximal inhibition (IC50) required 1860 nM.

`CCS(=O)(=O)N1CCN(c2ccc3nc(-c4ccc(OCc5ccccc5)c(-c5ccn[nH]5)c4)[nH]c3n2)CC1` [Example 70]: the half-inhibitory concentration (IC50) amounted to 1110 nM.

In the case of `c1ccc(COc2ccc(-c3nc4ccc(NC5CCNCC5)nc4[nH]3)cc2)cc1` [Example 53], it took 581 nM to reach half-maximal inhibition (IC50).

Turning to `CCS(=O)(=O)N1CC=C(c2ccc3nc(-c4ccc(OCc5ccccc5)cc4)[nH]c3n2)CC1` [Example 97, 2-(4-(benzyloxy)phenyl)-5-(1-(ethylsulfonyl)-1,2,3,6-tetrahydropyridin-4-yl)-3H-imidazo[4,5-b]pyridine], the half-inhibitory concentration (IC50) was found to be 217 nM.

As for `O=C(Nc1ccc(-c2nc3cccnc3[nH]2)cc1)c1ccccc1` [Example 3, N-(4-(3H-imidazo[4,5-b]pyridin-2-yl)phenyl)benzamide], the 50% inhibitory concentration (IC50) was 3970 nM. This IC50 is about 18-fold higher than that of the molecule before.

Take `Cn1ccc(-c2ccc3nc(-c4ccc(COc5ccccc5)cc4)[nH]c3n2)n1` [Example 38, 5-(1-methyl-1H-pyrazol-3-yl)-2-(4-(phenoxymethyl)phenyl)-3H-imidazo[4,5-b]pyridine]: inhibition was half-maximal at 2390 nM (IC50).

On to `CCS(=O)(=O)N1CCN(c2ccc3nc(-c4ccc(OCc5ccccc5)c(-c5cnn(C)c5)c4)[nH]c3n2)CC1` [Example 69, 2-(4-(benzyloxy)-3-(1-methyl-1H-pyrazol-4-yl)phenyl)-5-(4-(ethylsulfonyl)piperazin-1-yl)-3H-imidazo[4,5-b]pyridine], for which the IC50 stood at 447 nM.

The molecule `c1ccc(COc2ccc(-c3nc4cc(C5CCNCC5)cnc4[nH]3)cc2-c2cccnc2)cc1` [Example 64, 2-(4-(benzyloxy)-3-(pyridin-3-yl)phenyl)-6-(piperidin-4-yl)-3H-imidazo[4,5-b]pyridine] came in with an IC50 of 336 nM.

`O=S(=O)(C1CC1)N1CCC(c2ccc3nc(-c4ccc(OCc5ccccc5)cc4)[nH]c3n2)CC1` [Example 89, 2-(4-(benzyloxy)phenyl)-5-(1-(cyclopropylsulfonyl)piperidin-4-yl)-3H-imidazo[4,5-b]pyridine] yielded an IC50 of 1340 nM.

With `CNC(=O)Cc1ccnc2[nH]c(-c3ccc(OCc4ccccc4)cc3)nc12` [Example 93, 2-(2-(4-(benzyloxy)phenyl)-3H-imidazo[4,5-b]pyridin-7-yl)-N-methylacetamide], the IC50 came to 2140 nM. Compared with the last molecule, the IC50 is about 1.6-fold higher.
